Reference: patent US20080048155A1, “Filter and Cyanine Compound” (priority 2004, published 2008)

Tests used:
Format in all cases: physicochemical
[1] = Decomposition temperature by thermogravimetric-differential thermal analysis (TG-DTA); details: temperature at which weight loss initiated
Method: Into 25 parts of acetic acid, 14.9 parts of 4,5-benzo-1-(2-methoxyethyl)-3,3-dimethyl-2-methyleneindoline and 4.5 parts of 2-chloro-1-formyl-3-hydroxymethylenecyclohexene were charged and the reaction mixture was heated up to 60° C. 5.1 parts of acetic anhydride was added dropwise thereto at 50° C. to 60° C. over 1 hour, and then stirred at 50° C. to 60° C. for further 2 hours to complete the condensation reaction. The reaction liquid was cooled to room temperature, and then filtered under aspiration to remove insoluble impurity. Subsequently, a solution of 8.8 parts of potassium(bis-trifluoromethanesulfonyl)imide in 40 parts of water was added dropwise to the reaction liquid. The precipitated crystal was filtered under aspiration, recrystallized from 70 parts of N,N-dimethylformamide, washed with 5 parts of methanol, then with water, and dried, to obtain 19.1 parts of the aforementioned Compound 31. Spectroscopic characteristics and decomposition temperature of the resultant Compound 31 were as follows. In this connection, decomposition temperature was shown by a value of the temperature at which weight loss initiated in a thermogravimetric-differential thermal analysis (TG-DTA).

[2] = Solubility to various solvents at room temperature; details: % by mass
Source text: Further, solubility to various types of solvents at room temperature was as follows.
Further, solubility to various kinds of solvents at room temperature was as follows.

[3] = Heat resistance stability test of filter (oven 80° C., 7 days); details: for Residual Ratio: (Absorbance after the test/Absorbance before the test)×100, 80° C., 7 days; for Absorbance (OD value) Initial: acryl resin filter on polyester film, at maximum absorption wavelength, before 80° C. test; for Absorbance (OD value) After 7 days: acryl resin filter, oven at 80° C. for 7 days
Method: (§1) In this connection, absorbance (OD value) was measured using a spectrophotometer UV-3150 made by Shimadzu Corp. When measurement was carried out using a solvent, the same solvent was measured as a blank, and when measurement was carried out using a filter, a filter which had the same composition except that only the cyanine compound was not contained was produced and measured as a blank.
In 18.8 parts of MEK, 0.4 parts of Compound 31 obtained in the above Example 5 was dissolved. To this solution, 80 parts of a resin solution prepared by dissolving 25 parts of an acryl-based resin (DIANAL (RTM) BR-80, made by Mitsubishi Rayon Co., Ltd.) in 75 parts of MEK was mixed to obtain a solution for coating. This solution was coated on a polyester film so that thickness becomes 2 to 4 μm, dried at 80° C. to obtain an optical filter of the present invention. This filter was used as a filter for absorbing near infrared rays.
The resultant filter for absorbing near infrared rays was left to stand in an oven at 80° C. for 7 days. Then absorbance (OD value) of the filter was measured with a spectrophotometer before and after the test, and residual ratio of the coloring matter was determined from the change of the absorbance (OD value) at the maximum absorption wavelength. Residual ratio=(Absorbance after the test/Absorbance before the test)×100

[4] = Wet heat resistance stability test of filter (85° C., 85% RH, 3 days); details: for Residual Ratio: absorbance after/before ×100, 85° C. and 85% RH, 3 days; for Absorbance (OD value) After 3 days / Absorbance (OD value) Initial: acryl resin filter; for Absorbance (OD value) After 3 days: 85° C. and 85% RH for 3 days; for Absorbance (OD value) Initial: before 85° C./85% RH test
Method: as §1
The filter obtained in Example 12 (the filter using Compound 31) was left to stand in a high temperature constant humidity chamber at 85° C. and 85% RH for 3 days. Absorbance (OD value) of the filter was measured with a spectrophotometer before and after the test, and residual ratio of the coloring matter was determined from the change of the absorbance (OD value) at the maximum absorption wavelength.
The filters obtained in Comparative Examples 1 to 6 were left to stand in a high temperature constant humidity chamber at 85° C. and 85% RH for 3 days. Then absorbances (OD values) of the filters were measured with a spectrophotometer before and after the test, and residual ratios of the coloring matters were determined from the changes of the absorbances (OD values) at each maximum absorption wavelength. The test using the filter obtained in Comparative Example 1 is termed as Comparative Example 7, the test using the filter obtained in Comparative Example 2 is termed as Comparative Example 8, the test using the filter obtained in Comparative Example 3 is termed as Comparative Example 9, the test using the filter obtained in Comparative Example 4 is termed as Comparative Example 10, the test using the filter obtained in Comparative Example 5 is termed as Comparative Example 11, and the test using the filter obtained in Comparative Example 6 is termed as Comparative Example 12.

Decomposition temperature [1] | Solubility, Cyclohexanone [2] | Solubility, Cyclopentanone [2] | Solubility, Methyl ethyl ketone (MEK) [2] | Solubility, N,N-dimethylformamide [2] | Residual Ratio [3] | Absorbance (OD value) Initial [3] | Absorbance (OD value) After 7 days [3] | Residual Ratio [4] | Absorbance (OD value) After 3 days [4] | Absorbance (OD value) Initial [4] | Solubility, Dichloromethane [2] | Compound
– | – | – | – | – | 85.6% | 0.67 | 0.57 | 93.6% | 0.63 | 0.67 | – | CN1/C(=C/C=C2\CCCC(/C=C/C3=[N+](C)c4ccc5ccccc5c4C3(C)C)=C2Cl)C(C)(C)c2c1ccc1ccccc21 [Compound B]
224.6 °C | – | – | – | – | 87.2% | 0.83 | 0.72 | 99.9% | 0.82 | 0.83 | – | COCCN1/C(=C/C=C2\CCCC(/C=C/C3=[N+](CCOC)c4ccccc4C3(C)C)=C2Cl)C(C)(C)c2ccccc21 [Compound A]
– | – | – | – | – | 80.9% | 0.75 | 0.61 | 89.7% | 0.67 | 0.75 | – | CN1/C(=C/C=C/C=C/C=C/C2=[N+](C)c3ccc4ccccc4c3C2(C)C)C(C)(C)c2c1ccc1ccccc21 [Compound C]

The next lines start with the molecule.

Compound | Decomposition temperature [1] | Solubility, Cyclohexanone [2] | Solubility, Cyclopentanone [2] | Solubility, Methyl ethyl ketone (MEK) [2] | Solubility, N,N-dimethylformamide [2] | Residual Ratio [3] | Absorbance (OD value) Initial [3] | Absorbance (OD value) After 7 days [3] | Residual Ratio [4] | Absorbance (OD value) After 3 days [4] | Absorbance (OD value) Initial [4] | Solubility, Dichloromethane [2]
COCCN1/C(=C/C=C2\CCC(/C=C/C3=[N+](CCOC)c4ccc5ccccc5c4C3(C)C)=C2Cl)C(C)(C)c2c1ccc1ccccc21 [Compound 46] | 213.0 °C | 0.8% | 3.1% | 0.2% | 3.4% | – | – | – | – | – | – | –
COCCN1/C(=C/C=C/C=C/C=C/C2=[N+](CCOC)c3ccccc3C2(C)C)C(C)(C)c2ccccc21 [Compound 30] | – | – | – | – | – | 89.7% | 0.83 | 0.74 | 97.3% | 0.80 | 0.83 | –
COCCN1/C(=C/C=C2\CCCC(/C=C/C3=[N+](CCOC)c4ccc5ccccc5c4C3(C)C)=C2Cl)C(C)(C)c2c1ccc1ccccc21 [Compound 31] | 242.9 °C | – | 14.5% | 2.9% | 24.6% | 80.9% | 0.65 | 0.52 | 90.9% | 0.59 | 0.65 | 19.2%
CCCCOCCN1/C(=C/C=C2\CCC(/C=C/C3=[N+](CCOCCCC)c4ccc5ccccc5c4C3(C)C)=C2Cl)C(C)(C)c2c1ccc1ccccc21 [Compound 47] | 186.0 °C | 2.6% | 0.9% | 1.6% | 4.5% | – | – | – | – | – | – | –
